In patent US20240382629A1, “HETEROBIVALENT AND HOMOBIVALENT AGENTS TARGETING FIBROBLAST ACTIVATION PROTEIN ALPHA AND/OR PROSTATE-SPECIFIC MEMBRANE ANTIGEN” (The Johns Hopkins University, priority 2021, published 2024):
“And” between values parts separate entries of the source, which are not always exact repeats. Equal entries are not always repeated.

Columns and labels:
[1] = Biodistribution of representative compounds (Example 13), % ID/g in tissues of tumor-bearing mice; assay type: in vivo, mouse; settings: sub-heading prints [^18F]JHU1221785
DPPIV = DPPIV (Homo sapiens (Human), UniProt P27487); test: DPPIV inhibition assay (recombinant enzyme, H-Gly-Pro-AMC substrate); assay type: biochemical
Procedure: PSMA binding affinities of the compounds were determined using a competitive inhibition assay as previously reported. […] FAP, prolyl endopeptidase (PREP), and […] (DPPIV) inhibition assays: Recombinant enzymes (FAP, PREP, DPPIV) were purchased from R&D Systems (Minneapolis, MN). […] Z-Gly-Pro-AMC was used as a substrate for FAP and PREP. H-Gly-Pro-AMC was used as a substrate for DPPIV. The recombinant enzyme (0.4 μg/mL) was incubated with varying amounts of the test articles in the presence of the designated substrate (80 μM) for 10 min at room temperature. Fluorescence intensity was measured with 380 nm excitation and 460 nm emission using the Cytation 5 Cell Imaging Multi-Mode Reader (BioTek, Winooski, VT). IC50 and Ki values were obtained using a sigmoidal dose-response function.

[2] = 60 min + Blocker cold FAPI-04 10 nmole

DPPIV, sequence (P27487 whole entry): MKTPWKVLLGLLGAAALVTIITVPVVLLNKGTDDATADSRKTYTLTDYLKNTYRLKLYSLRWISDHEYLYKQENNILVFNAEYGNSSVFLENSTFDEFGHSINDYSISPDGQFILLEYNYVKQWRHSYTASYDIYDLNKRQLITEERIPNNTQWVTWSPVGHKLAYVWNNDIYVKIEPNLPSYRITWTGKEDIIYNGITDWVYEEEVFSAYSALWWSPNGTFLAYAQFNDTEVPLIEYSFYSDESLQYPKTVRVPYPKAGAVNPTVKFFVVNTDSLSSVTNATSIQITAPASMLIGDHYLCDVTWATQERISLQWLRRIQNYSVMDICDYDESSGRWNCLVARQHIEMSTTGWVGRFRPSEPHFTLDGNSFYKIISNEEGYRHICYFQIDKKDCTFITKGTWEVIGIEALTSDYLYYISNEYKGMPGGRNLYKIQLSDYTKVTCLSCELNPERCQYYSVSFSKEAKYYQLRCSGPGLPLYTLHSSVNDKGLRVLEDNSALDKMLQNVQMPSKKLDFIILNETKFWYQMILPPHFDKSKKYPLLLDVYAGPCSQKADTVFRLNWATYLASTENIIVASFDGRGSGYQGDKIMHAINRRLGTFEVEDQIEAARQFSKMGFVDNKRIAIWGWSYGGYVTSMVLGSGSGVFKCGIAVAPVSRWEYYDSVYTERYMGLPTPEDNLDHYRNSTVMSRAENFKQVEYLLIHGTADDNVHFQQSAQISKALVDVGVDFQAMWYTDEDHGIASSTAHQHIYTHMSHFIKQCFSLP

N#CC1CCCN1C(=O)CNC(=O)c1ccnc2ccc(OCCCNCC([18F])C(O)C(O)C(O)CO)cc12 (stereo not drawn) [[^18F]FAP-FDG]
% ID/g Bladder (individual mouse) [1, 2]: 1.45 % ID/g and 2.74 % ID/g
% ID/g Blood (individual mouse) [1, 2]: 0.20 % ID/g and 0.25 % ID/g
% ID/g Brain (individual mouse) [1, 2]: 4.18 % ID/g and 4.67 % ID/g
% ID/g Fat (individual mouse) [1, 2]: 0.63 % ID/g and 0.26 % ID/g
% ID/g Femur (individual mouse) [1, 2]: 1.33 % ID/g and 1.67 % ID/g
% ID/g Heart (individual mouse) [1, 2]: 11.97 % ID/g and 17.79 % ID/g
% ID/g Kidney (individual mouse) [1, 2]: 0.95 % ID/g and 0.87 % ID/g
% ID/g Large intestine (individual mouse) [1, 2]: 3.51 % ID/g and 3.22 % ID/g
% ID/g Liver (individual mouse) [1, 2]: 0.38 % ID/g and 0.55 % ID/g
% ID/g Lung (individual mouse) [1, 2]: 2.25 % ID/g and 2.08 % ID/g
% ID/g Mean Bladder [1, 2]: 2.10 % ID/g
% ID/g Mean Blood [1, 2]: 0.22 % ID/g
% ID/g Mean Brain [1, 2]: 4.43 % ID/g
% ID/g Mean Fat [1, 2]: 0.44 % ID/g
% ID/g Mean Femur [1, 2]: 1.50 % ID/g
% ID/g Mean Heart [1, 2]: 14.88 % ID/g
% ID/g Mean Kidney [1, 2]: 0.91 % ID/g
% ID/g Mean Large intestine [1, 2]: 3.37 % ID/g
% ID/g Mean Liver [1, 2]: 0.47 % ID/g
% ID/g Mean Lung [1, 2]: 2.17 % ID/g
% ID/g Mean Muscle [1, 2]: 6.73 % ID/g
% ID/g Mean Pancreas [1, 2]: 1.01 % ID/g
% ID/g Mean Salivary gland [1, 2]: 3.76 % ID/g
% ID/g Mean Small intestine [1, 2]: 0.77 % ID/g
% ID/g Mean Spleen [1, 2]: 1.30 % ID/g
% ID/g Mean Stomach [1, 2]: 2.76 % ID/g
% ID/g Mean Tumor [1, 2]: 3.65 % ID/g
% ID/g Muscle (individual mouse) [1, 2]: 6.83 % ID/g and 6.64 % ID/g
% ID/g Pancreas (individual mouse) [1, 2]: 1.20 % ID/g and 0.82 % ID/g
% ID/g Salivery gland (individual mouse) [1, 2]: 5.34 % ID/g and 2.19 % ID/g
% ID/g Small intestine (individual mouse) [1, 2]: 0.61 % ID/g and 0.92 % ID/g
% ID/g Spleen (individual mouse) [1, 2]: 0.92 % ID/g and 1.68 % ID/g
% ID/g Stomach (individual mouse) [1, 2]: 3.50 % ID/g and 2.02 % ID/g
% ID/g Tumor (individual mouse) [1, 2]: 3.33 % ID/g and 3.97 % ID/g
% ID/g Bladder (individual mouse) ([1]; 60 min, 20 μCi per mouse): 2.55 % ID/g and 2.49 % ID/g
% ID/g Blood (individual mouse) ([1]; 60 min, 20 μCi per mouse): 0.21 % ID/g and 0.25 % ID/g
% ID/g Brain (individual mouse) ([1]; 60 min, 20 μCi per mouse): 5.31 % ID/g and 6.18 % ID/g
% ID/g Fat (individual mouse) ([1]; 60 min, 20 μCi per mouse): 3.29 % ID/g and 1.13 % ID/g
% ID/g Femur (individual mouse) ([1]; 60 min, 20 μCi per mouse): 2.28 % ID/g and 2.68 % ID/g
% ID/g Heart (individual mouse) ([1]; 60 min, 20 μCi per mouse): 23.96 % ID/g and 16.00 % ID/g
% ID/g Kidney (individual mouse) ([1]; 60 min, 20 μCi per mouse): 1.13 % ID/g and 2.01 % ID/g
% ID/g Large intestine (individual mouse) ([1]; 60 min, 20 μCi per mouse): 4.03 % ID/g and 4.32 % ID/g
% ID/g Liver (individual mouse) ([1]; 60 min, 20 μCi per mouse): 0.55 % ID/g and 0.70 % ID/g
% ID/g Lung (individual mouse) ([1]; 60 min, 20 μCi per mouse): 2.15 % ID/g and 2.85 % ID/g
% ID/g Mean Bladder ([1]; 60 min, 20 μCi per mouse): 2.52 % ID/g
% ID/g Mean Blood ([1]; 60 min, 20 μCi per mouse): 0.23 % ID/g
% ID/g Mean Brain ([1]; 60 min, 20 μCi per mouse): 5.74 % ID/g
% ID/g Mean Fat ([1]; 60 min, 20 μCi per mouse): 2.21 % ID/g
% ID/g Mean Femur ([1]; 60 min, 20 μCi per mouse): 2.48 % ID/g
% ID/g Mean Heart ([1]; 60 min, 20 μCi per mouse): 19.98 % ID/g
% ID/g Mean Kidney ([1]; 60 min, 20 μCi per mouse): 1.57 % ID/g
% ID/g Mean Large intestine ([1]; 60 min, 20 μCi per mouse): 4.17 % ID/g
% ID/g Mean Liver ([1]; 60 min, 20 μCi per mouse): 0.63 % ID/g
% ID/g Mean Lung ([1]; 60 min, 20 μCi per mouse): 2.50 % ID/g
% ID/g Mean Muscle ([1]; 60 min, 20 μCi per mouse): 6.18 % ID/g
% ID/g Mean Pancreas ([1]; 60 min, 20 μCi per mouse): 1.33 % ID/g
% ID/g Mean Salivary gland ([1]; 60 min, 20 μCi per mouse): 5.31 % ID/g
% ID/g Mean Small intestine ([1]; 60 min, 20 μCi per mouse): 1.06 % ID/g
% ID/g Mean Spleen ([1]; 60 min, 20 μCi per mouse): 1.29 % ID/g
% ID/g Mean Stomach ([1]; 60 min, 20 μCi per mouse): 2.72 % ID/g
% ID/g Mean Tumor ([1]; 60 min, 20 μCi per mouse): 5.02 % ID/g
% ID/g Muscle (individual mouse) ([1]; 60 min, 20 μCi per mouse): 7.65 % ID/g and 4.71 % ID/g
% ID/g Pancreas (individual mouse) ([1]; 60 min, 20 μCi per mouse): 1.25 % ID/g and 1.42 % ID/g
% ID/g Salivery gland (individual mouse) ([1]; 60 min, 20 μCi per mouse): 6.70 % ID/g and 3.91 % ID/g
% ID/g Small intestine (individual mouse) ([1]; 60 min, 20 μCi per mouse): 1.21 % ID/g and 0.91 % ID/g
% ID/g Spleen (individual mouse) ([1]; 60 min, 20 μCi per mouse): 1.20 % ID/g and 1.38 % ID/g
% ID/g Stomach (individual mouse) ([1]; 60 min, 20 μCi per mouse): 2.04 % ID/g and 3.39 % ID/g
% ID/g Tumor (individual mouse) ([1]; 60 min, 20 μCi per mouse): 4.12 % ID/g and 5.91 % ID/g

N#C[C@@H]1CC(F)(F)CN1C(=O)CNC(=O)c1ccnc2ccc(OCCCN3CCN(C(=O)CN4CCN(CC(=O)O)CCN(CC(=O)O)CCN(CC(=O)O)CC4)CC3)cc12 [FAPI-04, reference compound]
Ki (DPPIV): 0.8 µM
